In ChEMBL document CHEMBL3885861, “Open TG-GATES”:

Organism: Rattus norvegicus
Experiment: Open TG-GATES - Regimen: Daily Repeat
Assay type: toxicity, organism-based, Sprague-Dawley
Set-up: regimen Daily Repeat, gender Male, age 6 weeks
Details: in vivo, po, […], route diet; for KIDNEY_TOTAL / KIDNEY_L / KIDNEY_R: tissue Kidney; for LIVER: tissue Liver; for A/G / ALP / ALT / AST / BUN / CRE / Ca / Cl / DBIL / GLC / IP / K / LDH / Na / PL / RALB / TBIL / TC / TG / TP / gamma-GTP: tissue Plasma
[1] = dose 0 %, dose level Control, time 28 day
[2] = dose 9999 %, dose level High, time 7 day
[3] = dose 9999 %, dose level High, time 14 day
[4] = dose 9999 %, dose level High, time 28 day
[5] = dose 0 %, dose level Control, time 7 day
[6] = dose 0 %, dose level Control, time 14 day

`CC(C)CCC[C@@H](C)[C@H]1CC[C@H]2[C@@H]3CC=C4C[C@@H](O)CC[C@]4(C)[C@H]3CC[C@]12C.C[C@H](CCC(=O)[O-])[C@H]1CC[C@@H]2[C@]1(C)[C@@H](O)C[C@@H]1[C@@]3(C)CC[C@@H](O)C[C@H]3C[C@@H](O)[C@@]21C.[Na+]` [cholesterol + sodium cholate] gave a KIDNEY_TOTAL [1] of 2.8 g, a KIDNEY_L [2] of 1.2 g and a KIDNEY_R [2] of 1.2 g. It also gave a KIDNEY_TOTAL [2] of 2.4 g, a KIDNEY_L [3] of 1.3 g and a KIDNEY_R [3] of 1.4 g. The KIDNEY_TOTAL [3] was 2.6 g, the KIDNEY_L [4] was 1.6 g and the KIDNEY_R [4] was 1.6 g. For the same compound, the KIDNEY_TOTAL [4] was 3.2 g, the LIVER [5] was 12.4 g and the LIVER [6] was 13.6 g. The LIVER [1] was 17.9 g, the LIVER [2] was 16.3 g and the LIVER [3] was 18.6 g. The LIVER [4] was 24.7 g, the A/G [5] was 1 and the ALP [5] was 1589.8 IU/L. For the same compound, the ALT [5] was 34 IU/L, the AST [5] was 67.4 IU/L and the BUN [5] was 19.6 mg/dL. For the same compound, the CRE [5] was 0.2 mg/dL, the Ca [5] was 10.4 mg/dL and the Cl [5] was 105.2 meq/L. It also gave a DBIL [5] of 0 mg/dL, a GLC [5] of 193.4 mg/dL and an IP [5] of 7.3 mg/dL. The K [5] was 4.4 meq/L, the LDH [5] was 160.6 IU/L and the Na [5] was 141.5 meq/L. For the same compound, the PL [5] was 154.8 mg/dL, the RALB [5] was 2.8 g/dL and the TBIL [5] was 0 mg/dL. The TC [5] was 75.4 mg/dL, the TG [5] was 124.4 mg/dL and the TP [5] was 5.7 g/dL. It also gave a gamma-GTP [5] of 0.9 IU/L, an A/G [6] of 1 and an ALP [6] of 1612.2 IU/L. It also gave an ALT [6] of 38.4 IU/L, an AST [6] of 79.8 IU/L and a BUN [6] of 18.5 mg/dL. The CRE [6] was 0.2 mg/dL, the Ca [6] was 10.5 mg/dL and the Cl [6] was 103.4 meq/L. The DBIL [6] was 0.002 mg/dL, the GLC [6] was 203.6 mg/dL and the IP [6] was 6.5 mg/dL. The K [6] was 3.7 meq/L, the LDH [6] was 284.8 IU/L and the Na [6] was 141.8 meq/L. It also gave a PL [6] of 139.4 mg/dL, an RALB [6] of 2.9 g/dL and a TBIL [6] of 0 mg/dL. For the same compound, the TC [6] was 62.4 mg/dL, the TG [6] was 145.6 mg/dL and the TP [6] was 5.8 g/dL. The gamma-GTP [6] was 1 IU/L, the A/G [1] was 0.8 and the ALP [1] was 1365 IU/L. The ALT [1] was 31.4 IU/L, the AST [1] was 56.2 IU/L and the BUN [1] was 17.7 mg/dL. The CRE [1] was 0.2 mg/dL, the Ca [1] was 10.3 mg/dL and the Cl [1] was 103.3 meq/L. The DBIL [1] was 0.006 mg/dL, the GLC [1] was 210.8 mg/dL and the IP [1] was 6.4 mg/dL. It also gave a K [1] of 4.2 meq/L, an LDH [1] of 103.6 IU/L and a Na [1] of 139 meq/L. For the same compound, the PL [1] was 143.8 mg/dL, the RALB [1] was 2.8 g/dL and the TBIL [1] was 0 mg/dL. It also gave a TC [1] of 68.2 mg/dL, a TG [1] of 180.9 mg/dL and a TP [1] of 6 g/dL. It also gave a gamma-GTP [1] of 0.9 IU/L, an A/G [2] of 0.9 and an ALP [2] of 1845.8 IU/L. The ALT [2] was 43.4 IU/L, the AST [2] was 79.8 IU/L and the BUN [2] was 18.6 mg/dL. For the same compound, the Ca [2] was 10.7 mg/dL, the Cl [2] was 103.2 meq/L and the GLC [2] was 190 mg/dL. The IP [2] was 7.6 mg/dL, the K [2] was 4.5 meq/L and the LDH [2] was 179.4 IU/L. The Na [2] was 140.8 meq/L, the PL [2] was 174 mg/dL and the RALB [2] was 3 g/dL. For the same compound, the TC [2] was 181 mg/dL, the TG [2] was 141.6 mg/dL and the TP [2] was 6.2 g/dL. It also gave a gamma-GTP [2] of 1.1 IU/L, an A/G [3] of 0.8 and an ALP [3] of 1718.2 IU/L. For the same compound, the ALT [3] was 35.4 IU/L, the AST [3] was 68 IU/L and the BUN [3] was 18.4 mg/dL. The Ca [3] was 10.8 mg/dL, the Cl [3] was 101.7 meq/L and the DBIL [3] was 0 mg/dL. The GLC [3] was 200.2 mg/dL, the IP [3] was 6.7 mg/dL and the K [3] was 4.2 meq/L. The LDH [3] was 181.2 IU/L, the Na [3] was 141.2 meq/L and the PL [3] was 142.8 mg/dL. For the same compound, the TC [3] was 158.2 mg/dL, the TG [3] was 121.9 mg/dL and the TP [3] was 6.5 g/dL. For the same compound, the gamma-GTP [3] was 1.1 IU/L, the ALP [4] was 1155 IU/L and the ALT [4] was 34.6 IU/L. It also gave an AST [4] of 62.8 IU/L, a BUN [4] of 16.6 mg/dL and a Ca [4] of 10.7 mg/dL. The Cl [4] was 100.9 meq/L, the DBIL [4] was 0 mg/dL and the GLC [4] was 194 mg/dL. The IP [4] was 6.5 mg/dL, the K [4] was 3.9 meq/L and the LDH [4] was 135 IU/L. It also gave a Na [4] of 140.2 meq/L, a PL [4] of 146.2 mg/dL and an RALB [4] of 3 g/dL. It also gave a TC [4] of 147.6 mg/dL, a TG [4] of 120.2 mg/dL and a TP [4] of 6.8 g/dL.
